From patent US20060276465A1, “1,2-di(cyclic) substituted benzene compounds” (Eisai R&D Management Co., Ltd., priority 2003, published 2006)
Where a name gives a salt, the structure may show the parent alone.

Experiments:
Jurkat cells [1] = test: Jurkat cell adhesion system (adhesion to immobilized human fibronectin, PMA-stimulated); assay type: cell-based; settings: concentration inhibiting by 50% the PMA-stimulated increase in adhered Jurkat cells on human fibronectin
Source text: The “C1-6 haloalkyl” of Group A1 and Group A2 (mentioned below) is aforementioned “C1-6 alkyl” having 1-6 aforementioned “halogen” bonded thereto, as examples there may be mentioned straight-chain or branched-chain alkyl groups such as methyl, ethyl, n-propyl, isopropyl, n-butyl, isobutyl, s-butyl, t-butyl, pentyl, isopentyl, 2-methylbutyl, neopentyl, 1-ethylpropyl, hexyl, isohexyl, 4-methylpentyl, 3-methylpentyl, 2-methylpentyl, 1-methylpentyl, 3,3-dimethylbutyl, 2,2-dimethylbutyl, 1,1-dimethylbutyl, 1,2-dimethylbutyl, 1,3-dimethylbutyl, 2,3-dimethylbutyl, 1-ethylbutyl or 2-ethylbutyl, having fluorine or chlorine bonded thereto, among which C1-4 alkyl having 1 to 3 fluorine or chlorine bonded thereto is preferred, and trifluoromethyl is particularly preferred.
As examples of the “C2-7 alkylene”, where C2-7 alkylene is permissible only in the case that a spiro union is formed together with the substituted 5- to 10-membered cycloalkyl or the substituted 5- to 10-membered cycloalkenyl, of Group A1 and Group A2 (mentioned below), there may be mentioned straight-chain or branched-chain groups such as 1,2-ethylene, trimethylene, propylene, ethylethylene, tetramethylene, pentamethylene, hexamethylene or heptamethylene, among which 1,2-ethylene, trimethylene, tetramethylene or pentamethylene is preferred, and 1,2-ethylene, tetramethylene or pentamethylene is particularly preferred.
As examples of the “halogen” of Group W1 there may be mentioned the same ones listed above, among which fluorine or chlorine is preferred.
As examples of the “C1-6 alkyl” of Group W1 there may be mentioned the same ones listed above, among which C1-4 groups are preferred, and methyl or ethyl is particularly preferred.
The “C2-7 alkoxyalkyl” of Group W1 is aforementioned “C1-6 alkyl” having the aforementioned “C1-6 alkoxy” bonded thereto, of 2 to 7 carbon (total number of carbon), and as examples there may be mentioned methoxymethyl, methoxyethyl, ethoxyethyl, methoxypropyl or propoxyethyl, among which methoxymethyl is preferred.
As examples of the “C1-6 alkoxy” of the “C1-6 alkoxy optionally substituted with a substituent selected from Group T1” of Group W1 there may be mentioned the same ones listed above, among which C1-4 groups are preferred, and methoxy, ethoxy, isopropoxy or propoxy is particularly preferred.

[2] = tested on: human peripheral blood neutrophils; test: Human peripheral blood neutrophil adhesion system (adhesion to HUVEC immobilized plate, PMA-stimulated); assay type: cell-based; settings: concentration inhibiting by 50% the PMA-stimulated increase in neutrophils adhered to HUVEC
Source text: As examples of the “C2-7 alkylcarbonyl” of Group W1 there may be mentioned the same ones listed above, among which C2-5 groups are preferred, and acetyl is particularly preferred.
As examples of the “C1-6 alkyl” for R^6X and R^7X there may be mentioned the same ones listed above.
As examples of the “halogen” of Group C1 there may be mentioned the same ones listed above, among which bromine, fluorine or chlorine is preferred.
As examples of the “C1-6 alkyl” of Group C1 there may be mentioned the same ones listed above, among which C1-4 groups are preferred, and methyl is particularly preferred.
As examples of the “C1-6 alkoxy” of Group C1 there may be mentioned the same ones listed above, among which C1-4 groups are preferred, and methoxy or ethoxy is particularly preferred.
As examples of the “halogen” of Group D1 and Group D2 (mentioned below) there may be mentioned the same ones listed above, among which fluorine or chlorine is preferred.
As examples of the “C1-6 alkoxy” of Group D1 and Group D2 (mentioned below) there may be mentioned the same ones listed above, among which C1-4 groups are preferred, and methoxy or ethoxy is particularly preferred.
The “C1-6 alkylthio” of Group D1 is a thio group having the aforementioned “C1-6 alkyl” bonded thereto, and as examples there may be mentioned straight-chain or branched-chain groups such as methylthio, ethylthio, propylthio, isopropylthio, […], isobutylthio, s-butylthio, t-butylthio, pentylthio, isopentylthio, 2-methylbutylthio, neopentylthio, 1-ethylpropylthio, hexylthio, isohexylthio, 4-methylpentylthio, 3-methylpentylthio, 2-methylpentylthio, 1-methylpentylthio, 3,3-dimethylbutylthio, 2,2-dimethylbutylthio, 1,1-dimethylbutylthio, 1,2-dimethylbutylthio, 1,3-dimethylbutylthio, 2,3-dimethylbutylthio, 1-ethylbutylthio or 2-ethylbutylthio, among which C1-4 groups are preferred, and methylthio or ethylthio is particularly preferred.
As examples of the “C1-6 alkylsulfonyl” of Group D1 there may be mentioned the same ones listed above, among which C1-4 groups are preferred, and methylsulfonyl or ethylsulfonyl is particularly preferred.
The “C1-6 alkylsulfinyl” of Group D1 is a sulfinyl group having the aforementioned “C1-6 alkyl” bonded thereto, as examples there may be mentioned straight-chain or branched-chain groups such as methylsulfinyl, ethylsulfinyl, propylsulfinyl, isopropylsulfinyl, […], isobutylsulfinyl, s-butylsulfinyl, t-butylsulfinyl, pentylsulfinyl, isopentylsulfinyl, 2-methylbutylsulfinyl, neopentylsulfinyl, 1-ethylpropylsulfinyl, hexylsulfinyl, isohexylsulfinyl, 4-methylpentylsulfinyl, 3-methylpentylsulfinyl, 2-methylpentylsulfinyl, 1-methylpentylsulfinyl, 3,3-dimethylbutylsulfinyl, 2,2-dimethylbutylsulfinyl, 1,1-dimethylbutylsulfinyl, 1,2-dimethylbutylsulfinyl, 1,3-dimethylbutylsulfinyl, 2,3-dimethylbutylsulfinyl, 1-ethylbutylsulfinyl or 2-ethylbutylsulfinyl, among which C1-4 groups are preferred, and methylsulfinyl or ethylsulfinyl is particularly preferred.

Jurkat cells [3] = test: Jurkat cell adhesion system (adhesion to immobilized human fibronectin, PMA-stimulated); assay type: cell-based; settings: concentration inhibiting by 50% the PMA-stimulated increase in the number of adhered Jurkat cells on human fibronectin; 45-60 minutes, 37° C.
Description: Evaluation of Compounds in Jurkat Cell Adhesion System
<Immobilization of Human Fibronectin in 96-Well Plate>
Human fibronectin (Becton Dickinson Biosciences) was diluted with phosphate-buffered saline (hereinafter abbreviated as PBS; Sigma) to 0.1-0.01 μg/ml, and the diluted solution was added to a 96-well plate (Becton Dickinson) at 50 μl/well, and allowed to stand overnight at 4° C. On the following day, the supernatant was removed from the plate, and then PBS containing 1% bovine serum albumin (hereinafter abbreviated as BSA; Sigma) was added thereto at 100 μl/well and incubation was performed at 37° C. for 2 hours in a CO2 incubator (Hirasawa).
The supernatant was removed from each plate and Jurkat cells suspended in RPMI-1640 (Sigma) containing 1 mg/ml BSA were added at 80 μl/well for 2.5×10^5 cells/well. The compound diluted to different concentrations with RPMI-1640 containing 1 mg/ml BSA was immediately added at 10 μl/well, and then 100 nM phorbol myristate acetate (hereinafter abbreviated as PMA; Sigma) in RPMI-1640 containing 1 mg/ml BSA was added at 10 μl/well and the plate was incubated in a CO2 incubator at 37° C. for 45-60 minutes. The supernatant was removed from the plate and each well was washed several times with 100 μl/well of RPMI-1640, after which 50 mM citrate buffer (pH 5.0) containing 3.75 mM p-nitrophenol-N-acetyl-β-D-glucosaminide (Sigma) and 0.25% Triton X-100 (Sigma) were added at 60 μl/well, and the mixture was placed in a CO2 incubator and incubated at 37° C. for 45 minutes. After incubation, 50 mM glycine buffer (pH 10.4) containing 5 mM EDTA was added at 90 μl/well, and the absorbance at 405 nm was measured with an EL340 Automated Microplate Reader (BIO-TEK) to determine the adhered cell count. The concentration of each compound which inhibited the increase in the number of adhered cells by the PMA-stimulation by 50% was recorded as the IC50 (μM).

[4] = tested on: human peripheral blood neutrophils; test: Human peripheral blood neutrophil adhesion system (adhesion to immobilized HUVEC, PMA-stimulated); assay type: cell-based; settings: 0.75 h, concentration inhibiting by 50% the PMA-stimulated increase in the number of adhered BCECF-AM labeled neutrophils on HUVEC immobilized plate, 45 minutes, 37° C.
Description: Evaluation of Compounds in Human Peripheral Blood Neutrophil Adhesion System
<Preparation of Human Peripheral Blood Neutrophils>
To a plastic centrifugation tube containing 100 units of heparin sodium (Shimizu Pharmaceutical) was added 25 ml of fresh blood sampled from a healthy human. After adding and mixing therewith 8 ml of physiological saline (Otsuka Pharmaceutical) containing 6% Dextran (Nacalai), the mixture was allowed to stand at room temperature for 45 minutes for sedimentation of the erythrocytes. The resultant supernatant was transferred to another plastic centrifugation tube and combined with an equivalent volume of phosphate-buffered saline (hereinafter abbreviated as PBS; Sigma), and then centrifuged at 1600 rpm for 7 minutes at room temperature. The obtained hematocyte fraction was suspended in 4 ml of PBS, and the suspension was superposed on 4 ml of Ficoll-Paque™ PLUS (Amersham Biosciences). The resultant bilayer liquid was centrifuged at 2000 rpm for 30 minutes at room temperature, after which the supernatant was removed and the precipitate was suspended in 10 ml of PBS and centrifuged at 1200 rpm for 7 minutes, and the supernatant was removed. The resulting precipitate was suspended in 0.5 ml of PBS again, and then 10 ml of distilled water (Otsuka Pharmaceutical) was added, 0.5 ml of an aqueous solution containing 3 M NaCl was immediately added to restore isotonicity, the mixture was centrifuged at 1200 rpm for 7 minutes, and the obtained precipitate was suspended in PBS containing 1 mg/ml bovine serum albumin (hereinafter abbreviated as BSA; Sigma) again and stored in ice until being used for the experiment.
<Fluorescent Labeling of Human Peripheral Blood Neutrophils>
The obtained neutrophils were suspended in PBS containing 1 mg/ml BSA at 2×10^7 cells/ml. BCECF-AM (Dojin) was added to a final concentration of 5 μM, and the mixture was incubated at 37° C. for 45 minutes. It was then rinsed twice with PBS containing 1 mg/ml BSA by centrifugation, suspended again in PBS containing 1 mg/ml BSA at 5×10^7 cells/ml, and stored in ice until use.
<Preparation of HUVEC Immobilized Plate>
Human umbilical vein endothelial cells (hereinafter abbreviated as HUVEC) were suspended in MCDB131 medium (Chlorella Industries) containing 10% fetal calf serum and 30 μg/ml endothelial cell growth supplement (Becton Dickinson Bioscience). The suspension was added at 7.5×10^3 cells/well to a 96-well plate (Iwaki) immobilized with type I collagen, and cultured for 3 days in a CO2 incubator (Hirasawa). Upon confirming confluency of the cells, the supernatant was discarded, the plate was rinsed twice with PBS, and then PBS containing 0.1% glutaraldehyde (Kanto Kagaku) was added at 100 μl/well and the HUVECs were immobilized for 5 minutes. The supernatant was discarded and the plate was washed twice with PBS, and then PBS was added at 100 μl/well and the mixture was stored at 4° C. until use.
To 6.5 ml of RPMI-1640 medium (Sigma) containing 1 mg/ml of BSA were added 0.5 ml of a suspension of BCECF-AM labeled neutrophils at 5×10^7/ml stored in ice, which was mixed, and the mixture was added at 80 μl/well to a HUVEC immobilized plate. To this plate were immediately added 10 μl/well of a solution of the compound diluted at different concentrations with RPMI-1640 containing 1 mg/ml BSA, and 10 μl/well of 100 nM phorbol myristate acetate (hereinafter abbreviated as PMA; Sigma) in RPMI-1640 containing 1 mg/ml BSA, and the mixture was incubated in a CO2 incubator at 37° C. for 45 minutes. The supernatant was removed from the plate, which was then washed several times with RPMI-1640 at 100 μl/well, and then PBS containing 0.1% NP-40 (Calbiochem) was added thereto at 100 μl/well and the fluorescent intensity was measured with and ARVO™SX 1420 multi label counter (Wallac) to determine the number of adhered cells. […]

Balb/c mice = test: DSS-induced colitis model; assay type: in vivo; settings: male Balb/c mice; 1-3% DSS for 5-7 days; 30 mg/kg orally once a day for 5-7 successive days
Source text: Evaluation of Compounds in DSS-Induced Colitis Model
A 1-3% solution of dextran sulfate sodium (hereinafter abbreviated as DSS; ICN) in purified water (Otsuka Pharmaceutical) was fed freely to 6- to 7-week-old male Balb/c mice (Charles River Japan) for 5-7 days to induce colitis. Disease Activity Index (hereinafter abbreviated as DAI) scored based on fecal hardness, blood content in feces and body weight change, the number of neutrophils infiltrating the colon and the length of the colon were used as indexes to evaluate compounds. Each compound was suspended or dissolved in an aqueous solution containing 0.5% methyl cellulose (Wako), and orally administered at 30 mg/kg once a day, for 5-7 successive days.

SMILES	IC50 (Jurkat cells [1]) [µM]	IC50 [2] [µM]	IC50 (Jurkat cells [3]) [µM]	IC50 [4] [µM]	improvement in comparison with the DSS control group (DAI, number of neutrophils infiltrating the colon, length of the colon) (Balb/c mice)
CCCCN1CCN(c2cc3c(cc2C2CC(C)(C)CC(C)(C)C2)OCCO3)CC1 [Example 15, 1-Butyl-4-[7-(3,3,55-tetramethylcyclohexyl)-2,3-dihydrobenzo[1,4]dioxin-6-yl]piperazine hydrochloride]	4.7	11.8			
CCCCN1CCN(c2cc(OCCOC)ccc2C2CC(C)(C)CC(C)(C)C2)CC1 [Example 10, 1-Butyl-4-[5-(2-methoxyethoxy)-2-(3,3,5,5-tetramethylcyclohexyl)phenyl]piperazine hydrochloride]	3.3	7.8			
CCCCN1CCN(c2cc3c(cc2C2=CC(C)(C)CC(C)(C)C2)OCO3)CC1 [Example 13, 1-Butyl-4-[6-(3,3,5,5-tetramethylcyclohex-1-enyl)benzo [1,3]dioxol-5-yl]piperazine hydrochloride]	3.8	21.7			
CCCN1CCN(c2cc3c(cc2C2=CCC(C(C)(C)C)CC2)N(C)CCO3)CC1 (racemic) [Example 8, 6-(4-t-Butylcyclohex-1-enyl)-4-methyl-7-(4-propylpiperazin-1-yl)-3,4-dihydro-2H-benzo[1,4]oxazine hydrochloride]	3.4	16.7			
CCCCN1CCN(c2ccc(N3CCC4(CC3)OCCO4)cc2C2CCC(C(C)(C)C)CC2)CC1.Cl (stereo not shown) [Example 134, 8-{3-(4-t-Butylcyclohexyl)-4-(4-butylpiperazin-1-ylphenyl}-1,4-dioxa-8-aza-spiro [4.5]decane hydrochloride]	4	6			
CCCCN1CCN(c2ccc(N3CCC(OC)CC3)cc2C2CC(C)(C)CC(C)(C)C2)CC1.Cl [Example 32, 1-Butyl-4-[4-(4-methoxypiperidin-1-yl)-2-(3,3,5,5-tetramethylcyclohexyl)phenyl]piperazine hydrochloride]			3.6	7	particularly good improvement
